The CheMixHub viscosity set
Values joined by “and” are separate entries in the source; they are usually repeats but may differ in a detail not shown here. Equal values may be shown once.

Test: xn = mol fraction of the nth substance listed
Conditions: 101 kPa

CCC(C)=O + Cc1ccccc1
viscosity
Conditions	298.15 K	303.15 K	308.15 K
x1 = 0.1009	–	0.516 mPa·s	–
x1 = 0.2412	–	0.496 mPa·s	–
x1 = 0.3948	–	0.475 mPa·s	–
x1 = 0.524	–	0.458 mPa·s	–
x1 = 0.7006	–	0.431 mPa·s	–
x1 = 0.8899	–	0.397 mPa·s	–
x2 = 0.0856	0.4052 mPa·s and 0.4052 mPa·s	0.3822 mPa·s and 0.3822 mPa·s	0.3593 mPa·s and 0.3593 mPa·s
x2 = 0.1724	0.4244 mPa·s and 0.4244 mPa·s	0.3996 mPa·s and 0.3996 mPa·s	0.3756 mPa·s and 0.3756 mPa·s
x2 = 0.2624	0.4439 mPa·s and 0.4439 mPa·s	0.4176 mPa·s and 0.4176 mPa·s	0.3922 mPa·s and 0.3922 mPa·s
x2 = 0.337	0.4594 mPa·s and 0.4594 mPa·s	0.432 mPa·s and 0.432 mPa·s	0.4061 mPa·s and 0.4061 mPa·s
x2 = 0.433	0.4781 mPa·s and 0.4781 mPa·s	0.4494 mPa·s and 0.4494 mPa·s	0.423 mPa·s and 0.423 mPa·s
x2 = 0.5555	0.4987 mPa·s and 0.4987 mPa·s	0.4688 mPa·s and 0.4688 mPa·s	0.4417 mPa·s and 0.4417 mPa·s
x2 = 0.66	0.5145 mPa·s and 0.5145 mPa·s	0.4844 mPa·s and 0.4844 mPa·s	0.4575 mPa·s and 0.4575 mPa·s
x2 = 0.769	0.5308 mPa·s and 0.5308 mPa·s	0.5002 mPa·s and 0.5002 mPa·s	0.4738 mPa·s and 0.4738 mPa·s
x2 = 0.8831	0.5472 mPa·s and 0.5472 mPa·s	0.5168 mPa·s and 0.5168 mPa·s	0.4909 mPa·s and 0.4909 mPa·s

COC(C)=O + Cc1ccccc1
viscosity [mPa·s]
Conditions	298.15 K	308.15 K
x1 = 0.0413	0.536	0.487
x1 = 0.1501	0.502	0.459
x1 = 0.2505	0.476	0.437
x1 = 0.3495	0.454	0.419
x1 = 0.4385	0.437	0.404
x1 = 0.4859	0.429	0.397
x1 = 0.5491	0.42	0.389
x1 = 0.6486	0.407	0.377
x1 = 0.7514	0.397	0.367
x1 = 0.848	0.39	0.36
x1 = 0.9445	0.386	0.354

COCCOC + Cc1ccccc1
298.15 K
Conditions	viscosity [mPa·s]
x1 = 0.102	0.535
x1 = 0.2036	0.509
x1 = 0.3047	0.486
x1 = 0.4053	0.462
x1 = 0.5055	0.444
x1 = 0.6053	0.434
x1 = 0.7046	0.429
x1 = 0.8035	0.425
x1 = 0.902	0.419

COC(C)=O + Cc1ccccc1C
viscosity [mPa·s]
Conditions	298.15 K	308.15 K
x1 = 0.0434	0.731	0.636
x1 = 0.1489	0.668	0.587
x1 = 0.2499	0.616	0.546
x1 = 0.3517	0.57	0.508
x1 = 0.444	0.533	0.478
x1 = 0.4974	0.513	0.462
x1 = 0.5506	0.495	0.447
x1 = 0.6497	0.465	0.422
x1 = 0.7494	0.438	0.399
x1 = 0.851	0.414	0.378
x1 = 0.9458	0.394	0.36
